{"source": "patent US8252778B2", "about": "“Highly fluorinated oils and surfactants and methods of making and using same” (University of Utah Research Foundation, priority 2006, dated 2012)", "origin": "cited, not measured here", "biological_target": "sstr2 (Homo sapiens, UniProt P30874)", "sequence (P30874 whole entry, species assumed)": "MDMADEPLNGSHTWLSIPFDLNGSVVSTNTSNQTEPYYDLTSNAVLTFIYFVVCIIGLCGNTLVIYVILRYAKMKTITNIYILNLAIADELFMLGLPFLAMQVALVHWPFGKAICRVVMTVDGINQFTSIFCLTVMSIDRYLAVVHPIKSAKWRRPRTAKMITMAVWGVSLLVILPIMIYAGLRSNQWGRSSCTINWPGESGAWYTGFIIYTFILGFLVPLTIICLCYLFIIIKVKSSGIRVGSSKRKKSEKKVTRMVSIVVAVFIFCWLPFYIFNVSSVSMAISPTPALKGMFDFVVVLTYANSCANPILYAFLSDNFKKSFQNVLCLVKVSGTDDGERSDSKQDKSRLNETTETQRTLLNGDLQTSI", "data": [{"molecule": "C[C@@H](O)[C@@H]1NC(=O)[C@H](CCCCN)NC(=O)[C@@H](Cc2c[nH]c3ccccc23)NC(=O)[C@H](Cc2ccccc2)NC(=O)[C@@H](NC(=O)[C@H](N)Cc2ccccc2)CSSC[C@@H](C(=O)N[C@H](CO)[C@@H](C)O)NC1=O", "note": "[octreotide, DPhe1-c[Cys2-Phe3-DTrp-4-Lys5-Thr6-Cys7]-Thr8-NH2]", "values": [{"measurement": "affinity and specificity for sstr2", "result": "high affinity and specificity"}]}]}
